In patent publication US20240174648A1, “Small Molecule Compound” (Technoderma Medicines Pte Ltd, priority 2019, published 2024) one finds IC50 data, which are given here for twelve molecules.

One assay addresses JAK1 (Homo sapiens, UniProt P23458). Nature of the assay: JAK kinase inhibition assay (EZ Reader, peptide substrate phosphorylation) - JAK1. The note with it: JAK1 kinase 20 nM; 8 concentration points, max 10 μM. In kind it is biochemical. The source says: (§1) Assay for Identifying Inhibitory Effects of Compounds on JAK Kinases
(§2) Janus kinases (JAK), including JAK1, JAK2, JAK3 and Tyk2, transduce a cytokine-mediated signal through a JAK-STAT pathway. The kinases are 120-140 kDa in size and have 7 determined homology regions: JH1 to JH7. JH1 is an important region for enzymatic activity and has typical characteristics of tyrosine kinases. Phosphorylation of tyrosine leads to a change in the conformation of JAK protein, thereby promoting binding of substrate. The JAK-STAT system includes three main parts: receptors penetrating a cell membrane, Janus kinases binding to the receptors, and signal transducers and activators of transcription (STAT) for transmitting signals to a nucleus and DNA. When cytokines bind to receptors, JAK phosphorylates the receptors and attracts STAT proteins. The STAT proteins are also phosphorylated and combined with one another to form dimers. The dimers enter the nucleus and bind to DNA, thereby leading to gene transcription.
(§3) EZ Reader from PerkinElmer can be used to detect the phosphorylation of polypeptide substrates catalyzed by kinases. The device is based on microfluidic techniques, and can directly detect fluorescently labeled substrates and products. The separation step is achieved by controlling the pressure and electric field strength in the microfluidic chip. In kinase assays, a product conversion ratio is usually controlled to be 20-30%. A biological test is used to identify inhibitory effects of compounds on JAKs.
(§4) Compound powder was dissolved in DMSO, sealed and stored in a freezer under −20° C. The in-house compound Ref1 was used as a positive control for JAK1, JAK2 and Tyk2 tests, and Ref2 was used as a positive control for JAK3 tests.
(§5) S2.8. Assay buffer: 20 mM HEPES buffer, pH 7.4, 10 mM magnesium chloride, 0.01% bovine serum albumin BSA, 0.0005% Tween-20 and 1 mM dithiothreitol solution.
(§6) S2.9. Stop buffer: 180 mM HEPES buffer, 20 mM ethylenediaminetetraacetic acid and 0.2% coating reagent 3.
(§7) S2.10. Separation buffer: 100 mM HEPES buffer, 10 mM ethylenediaminetetraacetic acid, 0.0005% Tween 20, 0.1% coating reagent 3 and 1% dimethyl sulfoxide.
(§8) The compound was dissolved in dimethyl sulfoxide and diluted to 10 mM concentration, a certain volume of solution was taken and diluted to 0.6 mM concentration, 10 μL of the 0.6 mM dilution was added to a 384-well microplate, and then was diluted 3-fold with a total of 8 concentration points.
(§9) Positive control (HPE1): Ref1, final concentration: 10 μM […]
(§10) Negative control (ZPE): DMSO, final content: 1.6%
(§11) Compounds: maximum final concentration: 10 μM; 3-fold dilution, 8 concentration points and 2 duplicates.
(§12) S4.1. 250 nL of the compound was added to each well of the assay microplate by using ECHO, and centrifuged at 1000 rpm for 1 minute.
(§13) S4.2. 5 μL of the assay buffer was added and agitated for a few seconds to fully dissolve the compound.
(§14) S4.3. 5 μL of 3× substrate solution and 5 μL of 3× kinase solution were added and centrifuged at 800 rpm for 1 minute.
(§15) S4.4. Final concentrations of JAK1, JAK2, JAK3 and Tyk2 kinases in the reaction system were 20 nM, 1 nM, 1 nM and 1 nM respectively.
(§16) S4.5. Incubation at room temperature, where kinases had time differences, and different batches of kinases had time differences.
(§17) S4.6. When 20%-30% of the reaction completed, 15 μL of stop buffer was added to stop the reaction, and centrifuged at 1000 rpm for 2 minutes.
(§18) S4.7. The microplates were placed on EZ Reader for reading.
(§19) S4.8. Readings on EZ Reader were calculated by using a peak height, where product conversion ratio (%)=product/(product+substrate)*100.
(§20) 5. Data Processing: IC50 calculation
(§21) A graphing software Xlfit was used to form a concentration curve of the test compound, and an IC50 value was calculated.
(§22) “A” means “≥10 μM”; “B” means “≥1 μM and <10 μM”; “C” means “≥0.1 μM and <1 μM”; and “D” means “<0.1 μM”.

The next assay deals with Tyk2 (Homo sapiens, UniProt P29597). Nature of the assay: JAK kinase inhibition assay (EZ Reader, peptide substrate phosphorylation) - Tyk2. In kind it is biochemical. The note with it: Tyk2 kinase 1 nM; 8 concentration points, max 10 μM.
Text: as §1, §2, §3, §4, §5, §6, §7, §8, §9, §10, §11, §12, §13, §14, §15, §16, §17, §18, §19, §20, §21, §22

A value given as a limit tells only on which side of the number the result lay.

Tyk2, sequence (P29597 whole entry): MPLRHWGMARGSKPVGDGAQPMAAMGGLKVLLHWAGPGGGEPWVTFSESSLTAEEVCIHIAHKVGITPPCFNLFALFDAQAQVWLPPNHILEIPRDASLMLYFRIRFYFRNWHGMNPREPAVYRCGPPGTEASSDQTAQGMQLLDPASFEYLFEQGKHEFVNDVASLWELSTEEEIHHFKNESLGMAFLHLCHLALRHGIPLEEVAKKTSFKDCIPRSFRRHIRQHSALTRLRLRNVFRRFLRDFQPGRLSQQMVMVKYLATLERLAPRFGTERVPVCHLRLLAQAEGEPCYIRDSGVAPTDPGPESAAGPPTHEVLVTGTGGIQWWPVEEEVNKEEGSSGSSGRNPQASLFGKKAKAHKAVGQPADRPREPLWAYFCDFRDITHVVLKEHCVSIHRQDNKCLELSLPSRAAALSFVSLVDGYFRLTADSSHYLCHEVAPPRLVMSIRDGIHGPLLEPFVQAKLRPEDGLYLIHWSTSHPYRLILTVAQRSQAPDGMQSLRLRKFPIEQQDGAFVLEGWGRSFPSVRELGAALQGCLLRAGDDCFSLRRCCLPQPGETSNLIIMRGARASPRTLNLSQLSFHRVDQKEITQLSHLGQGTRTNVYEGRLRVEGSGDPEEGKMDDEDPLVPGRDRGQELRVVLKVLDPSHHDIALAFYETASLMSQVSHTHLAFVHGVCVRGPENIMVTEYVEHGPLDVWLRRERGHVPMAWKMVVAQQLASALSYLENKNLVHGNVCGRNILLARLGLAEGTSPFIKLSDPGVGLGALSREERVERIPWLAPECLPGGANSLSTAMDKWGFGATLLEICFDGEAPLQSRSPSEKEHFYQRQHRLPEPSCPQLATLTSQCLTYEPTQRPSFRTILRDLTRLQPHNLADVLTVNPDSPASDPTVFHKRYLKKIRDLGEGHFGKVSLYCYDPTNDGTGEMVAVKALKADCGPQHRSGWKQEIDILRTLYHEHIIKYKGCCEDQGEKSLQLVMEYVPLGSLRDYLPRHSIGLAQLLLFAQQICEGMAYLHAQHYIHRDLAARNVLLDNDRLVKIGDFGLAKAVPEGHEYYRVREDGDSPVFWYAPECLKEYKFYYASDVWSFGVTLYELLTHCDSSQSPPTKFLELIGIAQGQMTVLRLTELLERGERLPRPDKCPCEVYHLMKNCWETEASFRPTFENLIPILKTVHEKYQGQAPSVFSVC
JAK1, sequence (P23458 whole entry): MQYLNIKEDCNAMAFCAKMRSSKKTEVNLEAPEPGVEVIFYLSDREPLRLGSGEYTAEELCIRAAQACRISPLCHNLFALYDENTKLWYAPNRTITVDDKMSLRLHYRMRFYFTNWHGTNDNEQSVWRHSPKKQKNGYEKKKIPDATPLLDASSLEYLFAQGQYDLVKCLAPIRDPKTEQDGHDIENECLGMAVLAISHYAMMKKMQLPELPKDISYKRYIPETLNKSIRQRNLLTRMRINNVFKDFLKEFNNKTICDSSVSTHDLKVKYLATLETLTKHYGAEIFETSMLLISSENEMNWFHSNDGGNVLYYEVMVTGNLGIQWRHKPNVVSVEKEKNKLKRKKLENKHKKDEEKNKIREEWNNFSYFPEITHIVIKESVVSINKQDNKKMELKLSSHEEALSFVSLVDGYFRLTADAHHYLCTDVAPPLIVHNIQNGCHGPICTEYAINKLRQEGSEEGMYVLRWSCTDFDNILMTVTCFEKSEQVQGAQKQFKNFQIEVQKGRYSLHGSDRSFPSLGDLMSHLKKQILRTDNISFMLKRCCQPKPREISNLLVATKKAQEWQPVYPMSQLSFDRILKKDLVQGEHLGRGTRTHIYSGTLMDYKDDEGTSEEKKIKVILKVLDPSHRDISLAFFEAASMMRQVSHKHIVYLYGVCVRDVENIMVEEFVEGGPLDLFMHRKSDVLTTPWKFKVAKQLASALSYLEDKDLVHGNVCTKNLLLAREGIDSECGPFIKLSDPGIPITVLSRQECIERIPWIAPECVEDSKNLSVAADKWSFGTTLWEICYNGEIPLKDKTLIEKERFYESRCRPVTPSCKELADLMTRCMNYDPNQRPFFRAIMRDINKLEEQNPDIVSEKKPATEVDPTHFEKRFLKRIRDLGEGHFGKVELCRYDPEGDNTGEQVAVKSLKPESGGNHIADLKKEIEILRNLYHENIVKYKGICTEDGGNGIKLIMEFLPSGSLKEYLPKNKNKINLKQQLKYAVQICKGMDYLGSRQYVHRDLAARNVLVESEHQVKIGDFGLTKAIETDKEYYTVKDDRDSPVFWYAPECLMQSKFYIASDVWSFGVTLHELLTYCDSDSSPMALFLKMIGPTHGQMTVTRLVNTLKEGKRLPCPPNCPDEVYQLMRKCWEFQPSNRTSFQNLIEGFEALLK

`Cn1cc(Nc2nccc(-c3ccc(NC(=O)CC(F)(F)F)c4[nH]ccc34)n2)cn1` [TDM-180870, 3,3,3-trifluoro-N-(4-(2-((1-methyl-1H-pyrazol-4-yl)amino)pyrimidin-4-yl)-1H-indol-7-yl)propanamide]: the 50% inhibitory concentration (IC50) is under 0.1 µM against JAK1 and 0.1 to 1 µM on Tyk2.

Regarding `Cn1cc(Nc2nccc(-c3ccc(NS(=O)(=O)C4CCOCC4)nc3)n2)cn1` [TDM-180875, N-(5-(2-((1-methyl-1H-pyrazol-4-yl)amino)pyrimidin-4-yl)pyridin-2-yl)tetrahydro-2H-pyran-4-sulfonamide], the IC50 at JAK1 was 0.1 to 1 µM; against Tyk2, 1 to 10 µM.

As to `Cn1cc(Nc2nccc(-n3ccc4c(NC(=O)C5CC5)cccc43)n2)cn1` [TDM-180876, N-(1-(2-((1-methyl-1H-pyrazol-4-yl)amino)pyrimidin-4-yl)-1H-indole-4-yl)cyclopropanemethane], the half-inhibitory concentration (IC50) at JAK1 was under 0.1 µM; on Tyk2 it was 0.1 to 1 µM.

For `CCOCCS(=O)(=O)Nc1ccc(-c2ccnc(Nc3cnn(C)c3)n2)cn1` [TDM-180877, 2-ethyoxyl-N-(5-(2-((1-methyl-1H-pyrazol-4-yl)amino)pyrimidin-4-yl)pyridin-2-yl)ethanesulfonamide], the IC50 at JAK1 is 0.1 to 1 µM; against Tyk2, 1 to 10 µM.

Regarding `Cn1cc(Nc2nccc(-n3ccc4c(NC(=O)CC#N)cccc43)n2)cn1` [TDM-180881, 2-cyano-N-(1-(2-((1-methyl-1H-pyrazol-4-yl)amino)pyrimidin-4-yl)-1H-indol-4-yl)acetamide], the IC50 on JAK1 was under 0.1 µM; against Tyk2 it was 0.1 to 1 µM.

As for `Cn1cc(Nc2nccc(-n3ccc4c(NC(=O)CC(F)(F)F)cccc43)n2)cn1` [TDM-180882, 3,3,3-trifluoro-N-(1-(2-((1-methyl-1H-pyrazol-4-yl)amino)pyrimidin-4-yl)-1H-indol-4-yl)propanamide], the concentration for half-maximal inhibition (IC50) is under 0.1 µM against JAK1 and 0.1 to 1 µM at Tyk2.

On to `Cn1cc(Nc2nccc(-c3ccc(NC(=O)C4CC4)c4[nH]ncc34)n2)cn1` [TDM-180884, N-(4-(2-((1-methyl-1H-pyrazol-4-yl)amino)pyrimidin-4-yl)-1H-indazol-7-yl)cyclopropanemethane], for which the IC50 against JAK1 and at Tyk2 was 0.1 to 1 µM throughout.

Consider `Cn1cc(Nc2nccc(-n3ccc4c(NC(=O)C5CC5(F)F)cccc43)n2)cn1` (stereo not drawn) [TDM-180885, 2,2-difluoro-N-(1-(2-((1-methyl-1H-pyrazol-4-yl)amino)pyrimidin-4-yl)-1H-indol-4-yl)cyclopropane-1-carboxamide], for which the values for the concentration for half-maximal inhibition (IC50) at JAK1 and against Tyk2 were under 0.1 µM and 0.1 to 1 µM, respectively.

Turning to `Cn1cc(Nc2nccc(-c3cnc(NC(=O)C4CC4(F)F)nc3)n2)cn1` (stereo not drawn) [TDM-180886, 2,2-difluoro-N-(2-((1-methyl-1H-pyrazol-4-yl)amino)-[4,5′-bipyrimidin]-2′-yl)cyclopropane-1-carboxamide], the IC50 against JAK1 was under 0.1 µM; against Tyk2, 0.1 to 1 µM.

For the molecule `Cn1cc(Nc2nccc(-c3cnc(NC(=O)CC(F)(F)F)nc3)n2)cn1` [TDM-180887, 3,3,3-trifluoro-N-(2-((1-methyl-1H-pyrazol-4-yl)amino)-[4,5′-bipyrimidin]-2′-yl)propanamide], the IC50 fell in the range of 0.1 to 1 µM at JAK1 and 1 to 10 µM at Tyk2.

`Cn1cc(Nc2nccc(-c3cnc(NC(=O)C4CC4(F)F)c(F)c3)n2)cn1` (stereo not drawn) [TDM-180888, 2,2-difluoro-N-(3-fluoro-5-(2-((1-methyl-1H-pyrazol-4-yl)amino)pyrimidin-4-yl)pyridin-2-yl)cyclopropanecarboxamide]: the IC50 at JAK1 and on Tyk2 was 0.1 to 1 µM in each case.

On to `Cn1cc(Nc2nccc(-c3cnc(NC(=O)CC(F)(F)F)c(F)c3)n2)cn1` [TDM-180889, 3,3,3-trifluoro-N-(3-fluoro-S-(2-((1-methyl-1H-pyrazol-4-yl)amino)pyrimidin-4-yl)pyridin-2-yl)propanamide], for which the half-inhibitory concentration (IC50) on JAK1 was in the range of 0.1 to 1 µM; at Tyk2, 1 to 10 µM.
